Laboratory results reported in article PMC5559490, “Synthesis of Saccharumoside-B analogue with potential of antiproliferative and pro-apoptotic activities” (Scientific Reports, 2017).

Legend:
Bcl-2 [1] = assay: Quantification of Bcl-2 (ELISA), MCF-7; format: cell-based, human; conditions: MCF-7 cells; compared to untreated cells
Experimental: (§1) The intracellular content of Bcl-2 was quantified using the human Bcl-2 ELISA kit (Abcam, Cambridge, MA, USA). For the sample preparation, the cells were lysed with 1X lysis buffer. After 1 h of incubation at room temperature, the sample was spun at 1,000 g for 15 min and the supernatant was used for Bcl-2 measurement. Briefly, 80 μL of sample diluent and 20 μL of sample were added into the wells coated with monoclonal antibody to human Bcl-2, and after that the wells were washed twice with the wash buffer. Next, 50 μL of biotin-conjugate were added into the wells. After 2 h of incubation at room temperature on a microplate shaker, 100 μL of streptavidin-horseradish peroxidase were added. The sample was incubated again for 1 h at room temperature on a microplate shaker. The solution was withdrawn and the wells were washed with 3X wash buffer. Immediately, 100 μL of TMB substrate solution were added. Finally, 100 μL of stop solution were added into each well to stop the enzyme reaction. The absorbance was read using an ELISA reader at 450 and 620 nm wavelengths. Bcl-2 protein concentration was determined from the standard protein graphic using the optical densities of the samples[32].

HL-60 cells = assay: Cell cycle analysis (PI, flow cytometry), HL-60; format: cell-based, human; conditions: 24 h
Experimental: (§2) Cancer cells (1 × 10^6/ml) were treated with different concentrations of compound (5 and10 µM) for 24 h, fixed in cold 70% alcohol in PBS, washed, digested with DNase free RNase (400 µg/mL) at 37 °C for 45 min and stained with propidium iodide (10 µg/ml). Cells were analyzed for PI-DNA fluorescence by flow cytometerically using FACS CALIBUR (Becton Dickinson, Franklin Lakes, New Jersey, USA)[28]–[30]. The fluorescence intensity of subG0/GI cell fraction represents the dead cell population.

HL-60 leukemia cells = assay: MTT antiproliferative assay, HL-60; format: cell-based, human
caspase-9 [2] = assay: Caspase-9 colorimetric assay, HL-60; format: cell-based, human; conditions: HL-60 cells
Experimental: (§3) Caspases-3, -8 and -9 assays were measured according to manufacturer’s instructions using a caspase colorimetric protease kit (Abcam, Cambridge, MA, USA). Cells were treated with compounds for 48 h. The cells were lysed by the addition of 50 μL of chilled cell lysis buffer and incubated on ice for 10 min. The resulting cell lysate was centrifuged for 1 min at 10,000 g, and the supernatant was collected. The cell lysate containing […] of protein was incubated with […] of 4 mmol/L pNA-conjugated substrates (DEVD-pNA, IETD-pNA and LEHD-pNA; substrates for caspase-3, -8 and -9, respectively) at 37 °C for 3 h. The amount of pNA released was measured at 405 nm using an ELISA microplate reader (Bio rad). The caspases activity was expressed as fold difference, [33].

Bax = assay: Quantification of Bax (immunometric assay), HL-60; format: cell-based, human; conditions: HL-60 cells; compared to untreated cells
Experimental: Bax protein concentration determination was carried out using the Human Bax Enzyme Immunometric Assay kit (Assay Designs, Ann Arbor, MI, USA). The lysate (sample) preparation was carried out according to the manual. Following centrifugation (16,000 g for 15 min), the cells were resuspended in Modified Cell lysis buffer 4 [0.5 μL/mL of Sigma Protease Inhibitor Cocktail and 1 mM phenylmethylsulfonyl fluoride (PMSF)]. Cell lysate (100 μL) (sample) was added into the wells coated with monoclonal antibody to human Bax-α in triplicate. The plate was tapped gently to mix the contents. The sample was incubated at room temperature on a plate shaker for 1 h. The wells were emptied and washed with 5X wash buffer. After the final wash, the plate was tapped gently on a lint free paper towel to remove any remaining wash buffer. The sample was incubated again for 1 h at room temperature on a plate shaker after the addition of 100 μL of specific antibody (biotinylated monoclonal antibody to Bax-α) into each well. The wells were washed again with 5X wash buffer and emptied. Next, 100 μL of blue conjugate (streptavidin conjugated to horseradish peroxidase) was added into each well. […] The optical densities were read at 450 and 570 nm using an ELISA reader. Bax protein concentration was determined from the standard protein graphic using the optical densities of the samples[32].

[3] = test system: CaCo-2 colon cancer cells; assay: MTT antiproliferative assay, CaCo-2; format: cell-based; conditions: Homo sapiens, Caco-2; MTT assay; cancer cell line; mean of three independent experiments ± S.E.M.; read-out: IC50 CaCo-2 Colon
cytosolic cytochrome c = assay: Cytosolic cytochrome c estimation (ELISA), MCF-7; format: cell-based, human; conditions: MCF-7 cells; 5, 10 µM
Experimental: Cells were collected by centrifugation at 600 g for 5 min at 4 °C. The cell pellets were washed once with ice-cold PBS and resuspended in cytosol extraction buffer (20 mM Hepes-KOH, pH 7.5, 10 mM KCl, 1.5 mM MgCl2, 1 mM sodium EDTA, 1 mM sodium EGTA, 1 mM dithiothreitol and 0.1 mM PMSF) containing 250 mM sucrose on ice for 10 min. The cells were homogenized with the grinder on ice. Further, the homogenates were centrifuged at 700 g for 10 min at 4 °C. The supernatants were centrifuged at 10,000 × g for 30 min at 4 °C. Supernatant was collected as cytosolic fraction.
Cytosolic cytochrome c levels were determined using quantitative sandwich enzyme immunoassay using microplate reader. Sample or standard (100 μL) was added into each well and incubated for 2 h at room temperature. The wells were washed several times with wash buffer. The plate was inverted and cleaned with paper toweling. Cytochrome c conjugate (200 μL) was added into each well and incubated for 2 h at room temperature. Wells were washed several times with wash buffer. Substrate solution (200 μL) was added into each well and incubated for 30 min at room temperature. Finally, stop solution (50 μL) was added into wells. The optical density (absorbance) of each well was determined using microplate reader at a 450 nm wavelength.

[4] = test system: MIA PaCa-2 pancreatic cancer cells; assay: MTT antiproliferative assay, MIA PaCa-2; format: cell-based; conditions: Homo sapiens, MIA PaCa-2; MTT assay; cancer cell line; mean of three independent experiments ± S.E.M.; read-out: IC50 MIA PaCa-2 Pancreatic
caspase-3 = assay: Caspase-3 colorimetric assay, MCF-7; format: cell-based, human; conditions: MCF-7 cells
Experimental: as §3

MCF-7 cancer cells = assay: Cell cycle analysis (PI, flow cytometry), MCF-7; format: cell-based, human; conditions: MCF-7 cells; 5 and 10 µM; 24 h
Experimental: as §2

caspase-9 [5] = assay: Caspase-9 colorimetric assay, MCF-7; format: cell-based, human; conditions: MCF-7 cells
Experimental: as §3

Bcl-2 [6] = assay: Quantification of Bcl-2 (ELISA), HL-60; format: cell-based, human; conditions: HL-60 cells; compared to untreated cells
Experimental: as §1

COc1cc(CO)ccc1OC1OC(COC(=O)c2ccc(F)cc2)C(O)C(O)C1O (stereo not shown) [Compound 9f, (6-(4-(hydroxymethyl)-2-methoxyphenoxy)-tetrahydro-3,4,5-trihydroxy-2H-pyran-2-yl)methyl 4-fluorobenzoate]
effect on Bcl-2 levels (Bcl-2 [1]): dose dependent inhibition of Bcl-2 | effect on cell cycle distribution (HL-60 cells): cell cycle arrest at G0/G1 phase | anti-proliferative effect at 24 h (HL-60 leukemia cells; HL-60 cells, 24 h, versus camptothecin (positive control)): better antiproliferative effect than camptothecin | IC50 (HL-60 leukemia cells; Homo sapiens, HL-60, MTT assay, cancer cell line, mean of three independent experiments ± S.E.M., read-out: IC50 HL-60 Leukemia): 4.43 ± 0.35 µM | effect on caspase-9 activity (caspase-9 [2]): enhanced caspase-3 and -9 activities | effect on Bax protein levels (Bax): increase in Bax protein levels | IC50 [3]: 8.66 ± 0.72 µM | effect on cytosolic cytochrome c levels (cytosolic cytochrome c): dose dependently increased | IC50 [4]: 12.9 ± 0.52 µM | effect on caspase-3 activity (caspase-3): enhanced caspase-3 and -9 activities | effect on cell cycle distribution (MCF-7 cancer cells): cell cycle arrest at G0/G1 phase | effect on caspase-9 activity (caspase-9 [5]): enhanced caspase-3 and -9 activities | effect on Bcl-2 levels (Bcl-2 [6]): dose dependent inhibition of Bcl-2
